Results as given in patent publication US5462926A (Biomeasure, Inc., priority 1993, dated 1995).
Where a SMILES comes first, the peptide text is derived from it. Bridges are numbered along the chain shown (N, C = ends). [ ]: non-standard residue; d: D form. 2Nal = N[C@@H](Cc1ccc2ccccc2c1)C(=O)O; d2Nal = N[C@H](Cc1ccc2ccccc2c1)C(=O)O

What was measured:
[1] = test system: endothelin-1-stimulated increases in [3H]IP; assay: Endothelin-1-stimulated [3H]IP in C-6 glioblastoma cells; type: cell-based, rat
Procedure: (§1) Total phosphoinositides in C-6 cells and in NMB-R transfected cells were determined as described previously, with minor modifications [Benya, R. V. et al. Mol. Pharmacol. 42:1058 (1992); and Wang, L-H. et al. Biochem. Jo 286:641 (1992)]. Cells were grown to confluence in 24-well plates and then loaded with 100 μCi/ml myo-[2-^3 H]inositol in Dulbecco's modified essential medium with 2% fetal bovine serum at 37° C. for 48 hrs. Cells were washed and incubated in phosphoinositide buffer (standard buffer additionally containing 10 mM LiCl, 20 mM HEPES, 2 mM CaCl2, 2% BSA, and 1.2 mM MgSO4) for 15 min and then for 60 min at 37° C. with agonists at various concentrations or with 3 nM NMB (a half-maximal effective concentration) and possible antagonists at different concentrations. Reactions were halted using ice-cold 1% HCl in methanol, and the inositol phosphates (IP) were isolated as described previously [Bologna, M. et al. Cancer 63:1714 (1989); and Endo, T. et al. J. Endocrinolo 131:313 (1991)]. Briefly, after loading of the anion exchange column, free [^3 H]glycerophosphorylinositol was removed by washing with 5 mM disodium tetraborate in 60 mM sodium formate. Total [^3 H]inositol phosphates were then eluted using 100 mM formic acid in 1.0M ammonium formate as described previously [Benya, R. V. et al. Mol. Pharmacol. 42:1058 (1992); and Wang, L-H. et al. Biochem. J. 286:641 (1992 )].
(§2) without SSoctapeptide analog added. C6 glioblastoma cells (50,000
(§3) cells/well) were incubated with myo[2^3 H]inositol for two days,
(§4) washed and then incubated with or without the indicated peptides for 60
(§5) minutes at 37° C. in phosphoinositide buffer containing 10 mM LiCl
(§6) as described in METHODS. [^3 H]IP was measured using Dowex AG1X8 anio

[2] = molecular target: T1, somatostatin receptors (Rattus norvegicus, UniProt P30680); assay: Somatostatin membrane receptor assay, 125I-[Tyr11]SS-14, AR 42J cell membranes; type: binding; settings: Cheng method; table prints no unit (b360 gives nM for a Table 4 value); read-out: affinity, 125I-[Tyr11]SS-14, AR 42J Cell Membranes (somatostatin receptors)
T1 construct: endogenous in cells; host or cells: rat AR 42J pancreatic acinar tumor cell membranes

[3] = molecular target: T2, GRP receptor (Rattus norvegicus, UniProt P52500); assay: Amylase release from rat pancreatic acini (alone or Bn-stimulated); type: cell-based; set-up: from tissue; host or cells: dispersed pancreatic acini; settings: for Amylase Release, analog Alone (10 μM): analog 10 μM alone, control 4 ± 1; for Amylase Release, analog Plus Bn (0.3 nM): analog 10 μM plus Bn 0.3 nM, Bn without analog 15 ± 1; for IC50: read-out: IC50 Amylase Release, GRP Receptor, Rat Pancreatic Acini
Procedure: pancreatic acini or [^3 H]myo[2H]inositolloaded NMBR transfected cell
were incubated either with no additives, the somatostatin octapeptide
analog, Bn, or NMB, or a combination for 30 min at 37° C.. Amylase
release from pancreatic acini was expressed at the indicated percent of
the total cellular amylase released during the incubation. [^3 H]IP i
expressed in dpm's. To test for inhibitory effects, the effect of
somatostatin analog (10 μM) was determined on 0.3 nM Bnstimulated

[4] = molecular target: T2, GRP receptor; assay: GRP membrane receptor assay, 125I-[Tyr4]Bn, AR 42J cell membranes; type: binding; set-up: endogenous in cells; host or cells: rat AR 42J pancreatic acinar tumor cell membranes; settings: read-out: affinity, 125I-[Tyr4]Bn, AR 42J Cell Membranes (GRP receptors); Cheng method; unit inferred
[5] = molecular target: T3, NMB receptor (Rattus norvegicus, UniProt P24053); assay: [3H]IP in C-6 glioblastoma cells (alone or NMB-stimulated); type: cell-based; set-up: a full length NMB-preferring bombesin receptor clone generated from rat esophagus; expressed in transfected cells
T3 sequence (P24053 1-390): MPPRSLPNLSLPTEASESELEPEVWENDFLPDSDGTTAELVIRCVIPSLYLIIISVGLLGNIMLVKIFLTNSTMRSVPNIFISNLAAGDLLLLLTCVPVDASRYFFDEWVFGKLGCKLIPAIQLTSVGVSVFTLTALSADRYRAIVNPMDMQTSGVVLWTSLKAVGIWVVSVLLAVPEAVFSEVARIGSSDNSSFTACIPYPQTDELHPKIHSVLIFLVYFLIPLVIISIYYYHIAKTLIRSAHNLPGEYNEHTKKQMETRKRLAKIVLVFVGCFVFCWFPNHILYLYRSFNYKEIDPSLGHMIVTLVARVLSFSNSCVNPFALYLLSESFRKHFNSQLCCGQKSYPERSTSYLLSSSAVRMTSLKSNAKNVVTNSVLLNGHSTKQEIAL
Procedure: as §1, §2, §3, §4, §5, §6

[6] = test system: GRP receptors on rat pancreatic acini; assay: Binding of 125I-[Tyr4]bombesin to pancreatic acini; settings: NMB-R transfected cells vs GRP-R on rat pancreatic acini
Source text: Nonsaturable binding was<10% of total binding in all experiments.

T1 sequence (P30680 whole entry): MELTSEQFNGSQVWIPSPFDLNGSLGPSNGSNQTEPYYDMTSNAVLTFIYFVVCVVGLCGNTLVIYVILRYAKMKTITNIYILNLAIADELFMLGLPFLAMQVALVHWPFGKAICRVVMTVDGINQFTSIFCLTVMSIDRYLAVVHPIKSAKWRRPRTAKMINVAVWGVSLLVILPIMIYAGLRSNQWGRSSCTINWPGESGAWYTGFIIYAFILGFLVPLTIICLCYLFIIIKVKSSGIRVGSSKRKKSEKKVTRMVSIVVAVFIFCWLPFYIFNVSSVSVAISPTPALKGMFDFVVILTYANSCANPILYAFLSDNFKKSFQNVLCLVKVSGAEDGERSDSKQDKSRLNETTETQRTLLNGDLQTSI
T2 sequence (P52500 whole entry): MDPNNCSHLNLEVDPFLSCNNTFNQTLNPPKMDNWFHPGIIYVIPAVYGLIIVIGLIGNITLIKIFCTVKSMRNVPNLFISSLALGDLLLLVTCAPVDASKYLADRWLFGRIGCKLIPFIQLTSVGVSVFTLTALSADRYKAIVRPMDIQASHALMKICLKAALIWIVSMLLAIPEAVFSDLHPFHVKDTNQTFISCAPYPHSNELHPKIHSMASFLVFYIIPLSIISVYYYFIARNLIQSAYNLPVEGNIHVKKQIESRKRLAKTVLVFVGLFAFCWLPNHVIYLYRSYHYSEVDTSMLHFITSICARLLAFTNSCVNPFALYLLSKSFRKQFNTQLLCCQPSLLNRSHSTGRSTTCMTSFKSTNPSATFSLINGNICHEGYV

SMILES | effect on endothelin-1-stimulated increases in [3H]IP in C-6 cells [1] | [3H]IP with ET-1 (0.1 nM) ([1]; analog 10 μM, ET-1 alone 11.0 ± 2.1) [dpm × 10^3] | Ki [2] [nM] | Amylase Release, analog Alone (10 μM) [3] [% total] | Amylase Release, analog Plus Bn (0.3 nM) [3] [% total] | IC50 [3] [nM] | Ki [4] [nM] | effect on NMB-stimulated increases in [3H]IP in C-6 cells [5] | [3H]IP, no peptide added ([5]; analog 10 μM, 60 min 37° C., control 7.2 ± 1.0) [dpm × 10^3] | [3H]IP with NMB (10 nM) ([5]; analog 10 μM, NMB alone 21.0 ± 1.8) [dpm × 10^3] | fold greater affinity for NMB than GRP receptors [6] [fold]
C[C@@H](O)[C@H](NC(=O)[C@@H]1CSSC[C@H](NC(=O)[C@H](N)Cc2ccc3ccccc3c2)C(=O)N[C@@H](Cc2ccc(O)cc2)C(=O)N[C@H](Cc2c[nH]c3ccccc23)C(=O)N[C@@H](CCCCN)C(=O)N[C@@H](Cc2ccc3ccccc3c2)C(=O)N1)C(N)=O [Analog #2, H2 -D-Nal-Cys-Tyr-D-Trp-Lys-Nal-Cys-Thr-NH2] | no effect | 11.2 ± 1.9 | 0.5 ± 0.1 | 5 ± 1 | 13 ± 1 | > 10000 | 950 ± 70 | inhibited | 7.3 ± 1.2 | 14.3 ± 4.2 | 
CC(C)[C@@H]1NC(=O)[C@H](CCCCN)NC(=O)[C@@H](Cc2c[nH]c3ccccc23)NC(=O)[C@H](Cc2ccc(O)cc2)NC(=O)[C@@H](NC(=O)[C@H](N)Cc2ccccc2)CSSC[C@@H](C(=O)N[C@@H](Cc2ccc3ccccc3c2)C(N)=O)NC1=O [Analog #4, H2 -D-Phe-Cys-Tyr-D-Trp-Lys-Val-Cys-Nal-NH2] (H-[dF]CY[dW]KVC[2Nal]-NH2; disulfide 2-7) |  |  | 0.24 ± 0.13 | 4 ± 2 | 14 ± 1 | > 10000 | 2000 ± 150 |  |  |  | 
C[C@@H](O)[C@@H]1NC(=O)[C@H](CCCCN)NC(=O)[C@@H](Cc2c[nH]c3ccccc23)NC(=O)[C@H](Cc2ccc(O)cc2)NC(=O)[C@@H](NC(=O)[C@H](N)Cc2ccccc2)CSSC[C@@H](C(=O)N[C@@H](Cc2ccc3ccccc3c2)C(N)=O)NC1=O [Analog #7, H2 -D-phe-Cys-Tyr-D-Trp-Lys-Thr-Cys-Nal-NH2] (H-[dF]CY[dW]KTC[2Nal]-NH2; disulfide 2-7) |  |  | 0.86 ± 0.23 | 3 ± 1 | 16 ± 1 | > 10000 | 750 ± 10 |  |  |  | 
CC(C)[C@@H]1NC(=O)[C@H](CCCCN)NC(=O)[C@@H](Cc2c[nH]c3ccccc23)NC(=O)[C@H](Cc2ccc(O)cc2)NC(=O)[C@@H](NC(=O)[C@H](N)Cc2ccc3ccccc3c2)CSSC[C@@H](C(=O)N[C@H](Cc2ccc3ccccc3c2)C(N)=O)NC1=O [Analog #8, H2 -D-Nal-Cys-Tyr-D-Trp-Lys-Val-Cys-D-Nal-NH2] (H-[d2Nal]CY[dW]KVC[d2Nal]-NH2; disulfide 2-7) |  |  | 3.9 ± 0.1 | 2 ± 1 | 14 ± 1 | > 10000 | 4100 ± 750 |  |  |  | 
CC(C)[C@@H]1NC(=O)[C@H](CCCCN)NC(=O)[C@@H](Cc2c[nH]c3ccccc23)NC(=O)[C@H](Cc2ccc(O)cc2)NC(=O)[C@@H](NC(=O)[C@@H](N)Cc2ccc3ccccc3c2)CSSC[C@@H](C(=O)N[C@H](Cc2ccc3ccccc3c2)C(N)=O)NC1=O [Analog #9, H2 -Nal-Cys-Tyr-D-Trp-Lys-Val-Cys-D-Nal-NH2] (H-[2Nal]CY[dW]KVC[d2Nal]-NH2; disulfide 2-7) |  |  | 2.8 ± 0.7 | 3 ± 1 | 16 ± 1 | > 10000 | 1540 ± 180 |  |  |  | 
CC(C)[C@@H]1NC(=O)[C@H](CCCCN)NC(=O)[C@@H](Cc2c[nH]c3ccccc23)NC(=O)[C@H](Cc2ccc(O)cc2)NC(=O)[C@H](NC(=O)[C@H](N)Cc2ccc3ccccc3c2)CSSC[C@@H](C(=O)N[C@@H](Cc2ccc3ccccc3c2)C(N)=O)NC1=O [Analog #10, H2 -D-Nal-D-Cys-Tyr-D-Trp-Lys-Val-Cys-Nal-NH2] (H-[d2Nal][dC]Y[dW]KVC[2Nal]-NH2; disulfide 2-7) |  |  | 91 ± 23 | 3 ± 1 | 16 ± 1 | > 10000 | 1500 ± 160 |  |  |  | 
CC(C)[C@@H]1NC(=O)[C@H](CCCCN)NC(=O)[C@@H](Cc2c[nH]c3ccccc23)NC(=O)[C@H](Cc2ccc(O)cc2)NC(=O)[C@@H](NC(=O)[C@H](N)Cc2ccc3ccccc3c2)CSSC[C@H](C(=O)N[C@@H](Cc2ccc3ccccc3c2)C(N)=O)NC1=O [Analog #11, H2 -D-Nal-Cys-Tyr-D-Trp-Lys-Val-D-Cys-Nal-NH2] (H-[d2Nal]CY[dW]KV[dC][2Nal]-NH2; disulfide 2-7) |  |  | 48 ± 3 | 2 ± 1 | 14 ± 1 | > 10000 | 7620 ± 1260 |  |  |  | 
CC(C)[C@@H]1NC(=O)[C@H](CCCCN)NC(=O)[C@@H](Cc2c[nH]c3ccccc23)NC(=O)[C@H](Cc2ccc(O)cc2)NC(=O)[C@@H](NC(=O)[C@H](N)Cc2c[nH]c3ccccc23)CSSC[C@@H](C(=O)N[C@@H](Cc2ccc3ccccc3c2)C(N)=O)NC1=O [Analog #12, H2 -D-Trp-Cys-Tyr-D-Trp-Lys-Val-Cys-Nal-NH2] (H-[dW]CY[dW]KVC[2Nal]-NH2; disulfide 2-7) |  |  | 3.1 ± 1.6 | 3 ± 1 | 13 ± 1 | > 10000 | 2100 ± 150 |  |  |  | 
NCCCC[C@@H]1NC(=O)[C@@H](Cc2c[nH]c3ccccc23)NC(=O)[C@H](Cc2ccc(O)cc2)NC(=O)[C@@H](NC(=O)[C@H](N)Cc2ccc3ccccc3c2)CSSC[C@@H](C(=O)N[C@@H](Cc2ccc3ccccc3c2)C(N)=O)NC(=O)[C@H](Cc2ccccc2)NC1=O [Analog #13, H2 -D-Nal-Cys-Tyr-D-Trp-Lys-Phe-Cys-Nal-NH2] (H-[d2Nal]CY[dW]KFC[2Nal]-NH2; disulfide 2-7) |  |  | 194 ± 27 | 3 ± 1 | 14 ± 1 | > 10000 | 2150 ± 200 |  |  |  | > 100
CC(C)[C@@H]1NC(=O)[C@H](Cc2c[nH]cn2)NC(=O)[C@@H](Cc2c[nH]c3ccccc23)NC(=O)[C@H](Cc2ccc(O)cc2)NC(=O)[C@@H](NC(=O)[C@H](N)Cc2ccc3ccccc3c2)CSSC[C@@H](C(=O)N[C@@H](Cc2ccc3ccccc3c2)C(N)=O)NC1=O [Analog #14] (H-[d2Nal]CY[dW]HVC[2Nal]-NH2; disulfide 2-7; N-terminus assumed) |  |  | 1870 ± 30 | 2 ± 1 | 13 ± 1 | > 10000 | 3100 ± 700 |  |  |  | 
CC(C)[C@@H]1NC(=O)[C@H](CCCCN)NC(=O)[C@@H](Cc2ccc3ccccc3c2)NC(=O)[C@H](Cc2ccc(O)cc2)NC(=O)[C@@H](NC(=O)[C@H](N)Cc2ccc3ccccc3c2)CSSC[C@@H](C(=O)N[C@@H](Cc2ccc3ccccc3c2)C(N)=O)NC1=O [Analog #17, H2 -D-Nal-Cys-Tyr-D-Nal-Lys-Val-Cys-Nal-NH2] (H-[d2Nal]CY[d2Nal]KVC[2Nal]-NH2; disulfide 2-7) |  |  | 570 ± 180 | 4 ± 2 | 19 ± 1 | > 10000 | 3710 ± 200 |  |  |  | > 100
